# Measurements reported in ChEMBL document CHEMBL1649335, “Discovery of {1-[4-(2-{hexahydropyrrolo[3,4-c]pyrrol-2(1H)-yl}-1H-benzimidazol-1-yl)piperidin-1-yl]cyclooctyl}methanol, systemically potent novel non-peptide agonist of nociceptin/orphanin FQ receptor as analgesic for the treatment of neuropathic pain: design, synthesis, and structure-activity …” (Bioorg Med Chem, 2010).
# The source made the active and inactive calls.
# How the values were obtained:
# Nociceptin receptor [1] = target: T1, Nociceptin receptor (Homo sapiens, UniProt P41146)
# Mu-type opioid receptor = Mu-type opioid receptor (Homo sapiens, UniProt P35372)
# Nociceptin receptor [2] = target: T1, Nociceptin receptor; assay: biochemical
# in vitro = conditions: human, liver microsomes
# [3] = target: Kappa-type opioid receptor (Homo sapiens, UniProt P41145)
# [4] = Inhibition of rat 5-HT receptor
# [5] = target: T2, Voltage-gated L-type calcium channel (Rattus norvegicus, UniProt P22002+Q02485+P27732); assay: Inhibition of rat L-type Ca2+ channel dihydropyridine site
# Glutamate NMDA receptor = assay: Inhibition of rat NMDA receptor; type: protein-complex assay
# Rattus norvegicus [6] = assay: Antiallodynic activity against von Frey hair mechanically stimulated neuropathic pain in intrathecally dosed Sprague-Dawley rat assessed as increase of response threshold per site after 20 mins; type: functional
# Rattus norvegicus [7] = assay: Antiallodynic activity against von Frey hair mechanically stimulated neuropathic pain in Sprague-Dawley rat assessed as increase of response threshold per site at 0.55 to 170 nmol/site, icv after 20 mins; type: functional, organism-based
# Rattus norvegicus [8] = assay: Antiallodynic activity against von Frey hair mechanically stimulated neuropathic pain in Sprague-Dawley rat assessed as assessed as minimum effective dose to increase of response threshold per site at 0.55 to 55 nmol/site administered intrathecally after 1 hr; type: functional, organism-based
# Rattus norvegicus [9] = assay: Antiallodynic activity against von Frey hair mechanically stimulated neuropathic pain in Sprague-Dawley rat assessed as increase of response threshold per site at 0.55 to 55 nmol/site administered intrathecally after 1 hr; type: functional, organism-based
# Rattus norvegicus [10] = assay: Antiallodynic activity against von Frey hair mechanically stimulated neuropathic pain in Sprague-Dawley rat assessed as effect on allodynia in contralateral paw at 0.55 to 170 nmol/site administered intrathecally after 1 hr; type: functional, organism-based
# Rattus norvegicus [11] = assay: Antiallodynic activity against von Frey hair mechanically stimulated neuropathic pain in Sprague-Dawley rat assessed as increase of response threshold per site at 0.55 to 170 nmol/site, icv after 1 hr; type: functional, organism-based
# Rattus norvegicus [12] = assay: Antiallodynic activity against von Frey hair mechanically stimulated neuropathic pain in Sprague-Dawley rat assessed as assessed as minimum effective dose to increase of response threshold per site at 0.55 to 170 nmol/site, icv after 1 hr; type: functional, organism-based
# Rattus norvegicus [13] = assay: Antiallodynic activity against von Frey hair mechanically stimulated neuropathic pain in intrathecally dosed Sprague-Dawley rat assessed as assessed as minimum effective dose to increase of response threshold per site after 20 mins; type: functional
# Rattus norvegicus [14] = assay: Antiallodynic activity against von Frey hair mechanically stimulated neuropathic pain in icv dosed Sprague-Dawley rat assessed as decrease of response threshold in contralateral paw after 1 hr; type: functional, organism-based
# Rattus norvegicus [15] = assay: Antiallodynic activity against von Frey hair mechanically stimulated neuropathic pain in icv dosed Sprague-Dawley rat assessed as decrease of response threshold in contralateral paw after 20 mins; type: functional, organism-based
# Rattus norvegicus [16] = assay: Antiallodynic activity against von Frey hair mechanically stimulated neuropathic pain in Sprague-Dawley rat assessed as effect on allodynia in contralateral paw at 0.55 to 170 nmol/site administered intrathecally after 20 mins; type: functional, organism-based
# Rattus norvegicus [17] = assay: Antiallodynic activity against von Frey hair mechanically stimulated neuropathic pain in Sprague-Dawley rat assessed as assessed as minimum effective dose to increase of response threshold per site at 0.55 to 170 nmol/site, icv after 20 mins; type: functional, organism-based
# [18] = target: T2, Voltage-gated L-type calcium channel; assay: Inhibition of rat L-type Ca2+ channel verapamil site
# [19] = Inhibition of rat GABA transporter
# [20] = Inhibition of rat K+ATP channel
# Tyrosine 3-monooxygenase = Tyrosine 3-monooxygenase (Rattus norvegicus, UniProt P04177); assay: Inhibition of rat tyrosine hydroxylase
# [21] = Inhibition of rat chloride channel
# [22] = Inhibition of rat choline transporter
# [23] = Inhibition of rat N-type Ca2+ channel
# [24] = Inhibition of rat Na+ channel site 2
# Rattus norvegicus [25] = assay: Antiallodynic activity against von Frey hair mechanically stimulated neuropathic pain in Sprague-Dawley rat assessed as effect on allodynia in contralateral paw at 1 to 30 mg/kg, sc after 30 mins to 4 hrs; type: functional, organism-based
# Rattus norvegicus [26] = assay: Antiallodynic activity against von Frey hair mechanically stimulated neuropathic pain in Sprague-Dawley rat assessed as assessed as minimum effective dose to increase of response threshold at 1 to 30 mg/kg, sc after 30 mins to 4 hrs; type: functional, organism-based
# Rattus norvegicus [27] = assay: Antiallodynic activity against von Frey hair mechanically stimulated neuropathic pain in Sprague-Dawley rat assessed as increase of response threshold at 1 to 30 mg/kg, sc after 30 mins to 4 hrs; type: functional, organism-based
# [28] = Inhibition of rat phospholipase C
# [29] = Stimulation of rat adenylate cyclase
# T1 sequence (P41146 whole entry): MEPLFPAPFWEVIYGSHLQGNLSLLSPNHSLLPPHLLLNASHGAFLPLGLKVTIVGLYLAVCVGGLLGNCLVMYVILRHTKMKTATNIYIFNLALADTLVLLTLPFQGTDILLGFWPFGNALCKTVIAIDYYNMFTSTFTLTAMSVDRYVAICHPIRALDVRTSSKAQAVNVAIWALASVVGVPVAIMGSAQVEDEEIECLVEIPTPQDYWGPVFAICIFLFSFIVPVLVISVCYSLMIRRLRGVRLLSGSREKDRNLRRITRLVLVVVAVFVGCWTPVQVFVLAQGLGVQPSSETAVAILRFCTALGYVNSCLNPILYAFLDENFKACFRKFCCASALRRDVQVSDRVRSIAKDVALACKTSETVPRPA
# Chain of Mu-type opioid receptor (P35372 whole entry): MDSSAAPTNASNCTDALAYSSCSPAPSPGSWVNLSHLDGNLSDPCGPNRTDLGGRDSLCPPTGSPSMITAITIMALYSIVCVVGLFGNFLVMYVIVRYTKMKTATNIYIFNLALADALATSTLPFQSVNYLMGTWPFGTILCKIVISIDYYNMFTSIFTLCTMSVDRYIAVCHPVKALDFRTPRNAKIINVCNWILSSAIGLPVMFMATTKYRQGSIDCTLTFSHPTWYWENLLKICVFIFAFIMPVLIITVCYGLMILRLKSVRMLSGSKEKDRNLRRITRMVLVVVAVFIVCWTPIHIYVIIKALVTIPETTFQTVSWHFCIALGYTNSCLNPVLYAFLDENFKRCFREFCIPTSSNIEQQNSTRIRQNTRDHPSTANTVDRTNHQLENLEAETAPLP
# Chain of Kappa-type opioid receptor (P41145 whole entry): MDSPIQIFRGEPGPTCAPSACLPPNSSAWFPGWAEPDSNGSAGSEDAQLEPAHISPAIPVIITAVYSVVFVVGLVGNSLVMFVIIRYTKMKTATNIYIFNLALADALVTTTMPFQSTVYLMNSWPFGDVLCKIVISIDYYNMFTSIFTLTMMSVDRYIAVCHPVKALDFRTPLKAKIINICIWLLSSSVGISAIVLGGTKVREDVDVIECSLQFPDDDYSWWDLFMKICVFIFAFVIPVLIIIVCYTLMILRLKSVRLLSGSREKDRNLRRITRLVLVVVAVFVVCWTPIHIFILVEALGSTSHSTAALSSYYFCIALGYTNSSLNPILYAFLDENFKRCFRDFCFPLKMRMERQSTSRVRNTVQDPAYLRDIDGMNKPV
# Chain of Tyrosine 3-monooxygenase (P04177 whole entry): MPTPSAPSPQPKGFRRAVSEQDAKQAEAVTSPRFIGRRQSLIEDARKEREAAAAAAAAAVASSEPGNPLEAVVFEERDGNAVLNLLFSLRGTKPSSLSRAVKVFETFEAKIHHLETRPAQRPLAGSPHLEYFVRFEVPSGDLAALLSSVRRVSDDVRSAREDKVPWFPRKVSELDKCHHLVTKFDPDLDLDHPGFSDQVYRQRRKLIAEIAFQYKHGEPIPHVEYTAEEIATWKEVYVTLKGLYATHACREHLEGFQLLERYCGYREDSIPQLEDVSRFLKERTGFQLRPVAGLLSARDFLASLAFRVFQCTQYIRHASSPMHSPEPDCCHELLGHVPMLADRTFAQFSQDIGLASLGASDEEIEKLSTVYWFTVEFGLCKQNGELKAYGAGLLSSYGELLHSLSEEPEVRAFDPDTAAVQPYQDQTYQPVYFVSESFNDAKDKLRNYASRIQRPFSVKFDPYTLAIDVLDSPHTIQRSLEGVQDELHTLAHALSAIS
smiles,measurement,setting,value
OCC1(N2CCC(n3c(-c4ccc(F)c(Cl)c4)nc4ccccc43)CC2)CCCCCCC1,EC50,Nociceptin receptor [1],8.9 nM
same,EC50,Mu-type opioid receptor,1220 nM
same,Ki,Nociceptin receptor [2],0.73 nM
CN1CCN(c2nc3ccccc3n2C2CCN(C3(CO)CCCCCCC3)CC2)CC1,EC50,Nociceptin receptor [1],17 nM
same,half-life at 1 µM,in vitro,9.5 min
same,EC50,[3],18 nM
same,Ki,Nociceptin receptor [2],4.29 nM
NCCc1c[nH]c2ccc(O)cc12 [SEROTONIN],IC50,[4],2.7 nM
CCOC(=O)C1=C(C)NC(C)=C(C(=O)OC)C1c1cccc([N+](=O)[O-])c1 (stereo not drawn) [NITRENDIPINE],IC50,[5],1.3 nM
O=C(O)[C@@H]1C[C@H](CP(=O)(O)O)CCN1 [SELFOTEL],IC50,Glutamate NMDA receptor,1620 nM
CN1CCN(c2nc3ccccc3n2C2CCN(C3(C(=O)O)CCCCCCC3)CC2)CC1,Ki,Nociceptin receptor [2],> 250 nM
CC(C)C[C@H](NC(=O)[C@H](CCCCN)NC(=O)[C@H](CCCNC(=N)N)NC(=O)[C@H](C)NC(=O)[C@H](CO)NC(=O)[C@H](CCCCN)NC(=O)[C@H](CCCNC(=N)N)NC(=O)[C@H](C)NC(=O)CNC(=O)[C@@H](NC(=O)[C@H](Cc1ccccc1)NC(=O)CNC(=O)CNC(=O)[C@@H](N)Cc1ccccc1)[C@@H](C)O)C(=O)N[C@@H](C)C(=O)N[C@@H](CC(N)=O)C(=O)N[C@@H](CCC(N)=O)C(=O)O [NOCICEPTIN],ED50,Rattus norvegicus [6],10.3 nmol
same,ED50,Rattus norvegicus [7],inactive
same,MED,Rattus norvegicus [8],inactive
same,ED50,Rattus norvegicus [9],inactive
same,Activity,Rattus norvegicus [10],inactive
same,ED50,Rattus norvegicus [11],inactive
same,MED,Rattus norvegicus [12],inactive
same,MED,Rattus norvegicus [13],55 nmol
same,Activity,Rattus norvegicus [14],Dose-dependent effect
same,Activity,Rattus norvegicus [15],Dose-dependent effect
same,Activity,Rattus norvegicus [16],inactive
same,MED,Rattus norvegicus [17],inactive
OCC1(N2CCC(n3c(-c4ccc(Cl)cc4)nc4ccccc43)CC2)CCCCCCC1,EC50,Nociceptin receptor [1],9.1 nM
same,EC50,Mu-type opioid receptor,> 10000 nM
same,Ki,Nociceptin receptor [2],0.15 nM
COc1ccc(CCN(C)CCCC(C#N)(c2cc(OC)c(OC)c(OC)c2)C(C)C)cc1OC (stereo not drawn) [GALLOPAMIL],IC50,[18],23 nM
O=C(O)C1CCCNC1 (stereo not drawn) [NIPECOTIC ACID],IC50,[19],7170 nM
COc1ccc(Cl)cc1C(=O)NCCc1ccc(S(=O)(=O)NC(=O)NC2CCCCC2)cc1 [GLYBURIDE],IC50,[20],1.1 nM
CC1CN(c2nc3ccccc3n2C2CCN(C3(CO)CCCCCCC3)CC2)CCN1 (stereo not drawn),EC50,Nociceptin receptor [1],38 nM
same,EC50,Mu-type opioid receptor,1770 nM
same,half-life at 1 µM,in vitro,19.7 min
same,EC50,[3],366 nM
same,Ki,Nociceptin receptor [2],0.96 nM
N[C@@H](Cc1ccc(O)c(I)c1)C(=O)O [IOTYROSINE],IC50,Tyrosine 3-monooxygenase,1.4 nM
C=C(C)[C@@H]1[C@H]2OC(=O)[C@@H]1[C@]1(O)C[C@H]3O[C@]34C(=O)O[C@H]2[C@]14C [PICROTOXININ],IC50,[21],385 nM
C[N+]1(C)CCO[C@@](O)(c2ccc(-c3ccc([C@@]4(O)C[N+](C)(C)CCO4)cc3)cc2)C1 [HEMICHOLINIUM DIBROMIDE],IC50,[22],7.7 nM
C[C@@H](O)[C@@H]1NC(=O)[C@H](Cc2ccc(O)cc2)NC(=O)[C@@H]2C[C@@H](O)CN2C(=O)[C@H](CC(N)=O)NC(=O)[C@@H]2CSSC[C@@H]3NC(=O)[C@H](CO)NC(=O)[C@H](CO)NC(=O)CNC(=O)[C@@H]4C[C@@H](O)CN4C(=O)[C@H](CO)NC(=O)[C@H](CCCCN)NC(=O)[C@@H](N)CSSC[C@H](NC(=O)[C@H](CSSC[C@@H](C(=O)N[C@@H](Cc4ccc(O)cc4)C(N)=O)NC(=O)[C@H](CCCNC(=N)N)NC(=O)[C@H](CCCCN)NC1=O)NC(=O)[C@H](CC(N)=O)NC(=O)[C@H](Cc1ccc(O)cc1)NC(=O)[C@H](CO)NC(=O)[C@H]([C@@H](C)O)NC(=O)[C@@H]1C[C@@H](O)CN1C(=O)[C@H](CO)NC3=O)C(=O)N[C@@H](CCCNC(=N)N)C(=O)N[C@@H](CO)C(=O)N2,IC50,[23],0.045 nM
COc1ccc(C(=O)O[C@H]2CC[C@@]3(C)[C@@H]4CC[C@H]5[C@]6(O)C[C@H](O)[C@@]7(O)[C@@H](CN8C[C@@H](C)CC[C@H]8[C@@]7(C)O)[C@]6(O)C[C@@]53O[C@]24O)cc1OC [VERATRIDINE],IC50,[24],10700 nM
CC1(C)CN(c2nc3ccccc3n2C2CCN(C3(CO)CCCCCCC3)CC2)CCN1,EC50,Nociceptin receptor [1],23 nM
same,Activity,Rattus norvegicus [25],inactive
same,MED,Rattus norvegicus [26],inactive
same,ED50,Rattus norvegicus [27],inactive
same,Ki,Nociceptin receptor [2],4.54 nM
NC[C@@H]1O[C@H](O[C@H]2[C@@H](O)[C@H](O[C@@H]3[C@@H](O)[C@H](N)C[C@H](N)[C@H]3O[C@H]3O[C@H](CN)[C@@H](O)[C@H](O)[C@H]3N)O[C@@H]2CO)[C@H](N)[C@@H](O)[C@@H]1O [FRAMYCETIN],IC50,[28],7.9 nM
OCC1(N2CCC(n3c(-c4ccc(F)c(Cl)c4)nc4ccccc43)CC2)CCCCC1,EC50,Nociceptin receptor [1],53 nM
same,Ki,Nociceptin receptor [2],4.29 nM
C=C[C@@]1(C)CC(=O)[C@]2(O)[C@@]3(C)[C@@H](O)CCC(C)(C)[C@@H]3[C@H](O)[C@H](OC(C)=O)[C@@]2(C)O1 [COLFORSIN],EC50,[29],4300 nM
